Experimental data taken from patent US10695347B2, “Pyrimidine derivative and use thereof” (Hubei Bio-Pharmaceutical Industrial Technological Institute …, priority 2015, dated 2020).
Read-outs that look alike come from different tables or passages of the source.

What was measured:
[1] = biological target: ALK (Homo sapiens (Human), UniProt Q9UM73); assay: Inhibition of ALK kinase activity (Caliper mobility shift); type: biochemical
Experimental: (§1) Inhibition of Compound I Against ALK Kinase Activity
(§2) • I. Preparation of 1× kinase buffer and stop buffer
(§3) 1) 1× Kinase Buffer • 50 mM HEPES. pH 7.5 • 0.0015% Brij-35 • 10 mM MgCl2 • 2 mM DTT • 2) stop buffer • 100 mM HEPES, pH 7.5 • 0.015% Brij-35 • 0.2% Coating Reagent #3 • 50 mM EDTA
(§4) 2. Prepare a Compound Solution to be Tested • Step 2.1 Dilute the compound to 50× of the final desired highest inhibitor concentration in reaction by 100% DMSO. Transfer 100 μl of this compound dilution to a well in a 96-well plate. For example, if desired highest inhibitor concentration is 1 μM, then prepare 50 μM of compound DMSO solution in this step.
(§5) Step 2.2 Further dilute said compound dilution by 3-fold in series, thus obtain 10 concentrations.
(§6) Step 2.3 Add 100 μl of 100% DMSO to two empty wells for no compound control and no enzyme control in the same 96-well plate. Mark the plate as source plate.
(§7) Step 2.4 Prepare an intermediate plate
(§8) Transfer 10 μl of each compound from the source plate to a new 96-well plate as the intermediate plate.
(§9) Add 90 μl of 1× kinase buffer to each well of the intermediate plate. Mix the compounds in the intermediate plate for 10 min on a shaker.
(§10) Transfer 5 μl of each well from the 96-well intermediate plate to a 384-well plate in duplicate. For example, A1 of the 96-well plate is transferred to A1 and A2 of the 384-well plate. A2 of the 96-well plate is transferred to A3 and A4 of the 384-well plate, and so on.
(§11) 4.1 Prepare a 2.5× kinase solution
(§12) Add kinase in 1× kinase base buffer, thus obtain the 2.5× kinase solution.
(§13) 4.2 Prepare a 2.5× peptide solution
(§14) 4.3 In each well of the assay plate obtained in step 3, there was 5 μL of the compound in 10% DMSO.
(§15) 4.4 Transfer the 2.5× enzyme solution to the assay plate.
(§16) 4.5 Incubate at room temperature for 10 min.
(§17) 4.6 Transfer the 2.5× peptide solution to the assay plate.
(§18) 4.7 Kinase reaction and stop
(§19) Incubate at 28° C. for 20 min.
(§20) Add 25 μl of stop buffer to stop reaction.
(§21) Conversion rate of the kinase was read via the Caliper.
(§22) 6.1 Copy conversion data from Caliper program.
(§23) 6.2 Convert conversion values to inhibition values with the following formula: Percent inhibition=(max−conversion)/(max−min)*100
(§24) where “max” stands for DMSO control; and “min” stands for low control.
(§25) 6.3 Fit the data in XLfit excel add-in version 4.3.1 and obtain IC50 values according to the following formula: Y=Bottom+(Top−Bottom)/[…].

[2] = biological target: ALK L1196M (Homo sapiens (Human), UniProt Q9UM73, L1196M); assay: Inhibition of ALK L1196M kinase activity (Caliper mobility shift); type: biochemical
Sequence of ALK L1196M (Q9UM73 19-1620 L1196M): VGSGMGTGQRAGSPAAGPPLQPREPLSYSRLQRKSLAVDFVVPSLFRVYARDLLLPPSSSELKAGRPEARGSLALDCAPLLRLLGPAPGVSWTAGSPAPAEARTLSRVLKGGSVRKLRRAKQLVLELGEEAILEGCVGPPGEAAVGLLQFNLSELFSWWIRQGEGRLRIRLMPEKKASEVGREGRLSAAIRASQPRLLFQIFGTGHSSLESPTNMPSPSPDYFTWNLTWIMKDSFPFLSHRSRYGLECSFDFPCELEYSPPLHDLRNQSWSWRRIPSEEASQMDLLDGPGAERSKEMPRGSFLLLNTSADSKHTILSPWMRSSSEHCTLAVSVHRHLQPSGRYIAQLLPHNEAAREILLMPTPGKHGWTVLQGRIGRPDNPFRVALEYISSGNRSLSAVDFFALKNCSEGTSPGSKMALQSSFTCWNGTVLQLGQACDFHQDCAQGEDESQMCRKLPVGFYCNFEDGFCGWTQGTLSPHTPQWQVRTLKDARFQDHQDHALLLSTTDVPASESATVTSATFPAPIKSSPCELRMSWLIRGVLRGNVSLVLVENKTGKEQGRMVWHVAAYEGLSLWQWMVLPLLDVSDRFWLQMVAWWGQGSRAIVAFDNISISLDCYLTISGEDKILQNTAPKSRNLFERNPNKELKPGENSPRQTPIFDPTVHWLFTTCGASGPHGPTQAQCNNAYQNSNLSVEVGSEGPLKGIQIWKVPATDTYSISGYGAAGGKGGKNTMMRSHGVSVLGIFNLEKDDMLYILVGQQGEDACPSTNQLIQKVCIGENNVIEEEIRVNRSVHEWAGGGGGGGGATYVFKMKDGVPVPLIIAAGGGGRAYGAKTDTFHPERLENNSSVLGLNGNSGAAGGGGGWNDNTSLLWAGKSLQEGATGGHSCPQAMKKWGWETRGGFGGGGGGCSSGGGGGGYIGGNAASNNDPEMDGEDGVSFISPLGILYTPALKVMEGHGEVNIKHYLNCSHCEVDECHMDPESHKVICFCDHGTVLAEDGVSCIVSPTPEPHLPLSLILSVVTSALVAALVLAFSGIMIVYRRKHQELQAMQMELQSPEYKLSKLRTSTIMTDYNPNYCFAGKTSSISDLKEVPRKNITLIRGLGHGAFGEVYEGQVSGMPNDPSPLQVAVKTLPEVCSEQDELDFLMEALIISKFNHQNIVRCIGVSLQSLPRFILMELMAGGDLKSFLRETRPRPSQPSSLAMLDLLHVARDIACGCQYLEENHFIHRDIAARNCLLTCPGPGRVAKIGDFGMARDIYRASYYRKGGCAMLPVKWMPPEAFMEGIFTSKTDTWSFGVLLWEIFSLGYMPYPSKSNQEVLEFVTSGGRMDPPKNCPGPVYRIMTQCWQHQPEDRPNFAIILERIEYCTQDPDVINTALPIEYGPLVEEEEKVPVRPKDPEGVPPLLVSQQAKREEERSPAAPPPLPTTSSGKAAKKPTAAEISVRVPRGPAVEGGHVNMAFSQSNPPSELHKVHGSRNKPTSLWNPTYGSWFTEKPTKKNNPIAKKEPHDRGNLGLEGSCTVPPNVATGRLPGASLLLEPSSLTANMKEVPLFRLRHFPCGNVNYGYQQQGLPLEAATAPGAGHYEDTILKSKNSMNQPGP
Experimental: as §1, §2, §3, §4, §5, §6, §7, §8, §9, §10, §11, §12, §13, §14, §15, §16, §17, §18, §19, §20, §21, §22, §23, §24, §25

[3] = test system: Karpas299 cells; assay: Suppression of Karpas299 cell proliferation (CellTiter-Glo); type: cell-based; settings: 3 days incubation, read-out: Inhibition activity on Karpas299 cells IC50
Experimental: (§26) As the amount of ATP can indicate the number of living cells directly, the living cells in culture are able to be quantified by determining the ATP level. In our experiment, we use a living-cell testing kit to quantify the living cells, which utilizes UltraGlow luciferase to generate a stable glow signal in the presence of ATP which is produced by metabolism of living cells, such as respiration. Specifically, a reagent CellTiter-Glo™ was added into cell culture media, and then the luminescent intensity was determined to measure proliferation of cells, as the luminescent intensity is in direct proportion to the ATP level which correlates positively to the number of living cells. The test plate was tested with the Envision (PE).
Cell media: RPMI-1640 medium, fetal calf serum (FCS), antibiotics (Penicillin-Streptomycin)
Assay reagent: Cell Viability Assay Kit CellTiter-Glo
(§27) Others: a 96-well plate, a 384-well plate, DMSO
(§28) Step 3.1 Culturing test cells
Karpas 299 cells were plated into a black 384-well plate, with 2500 cells in 45 μl cell suspension per well. The plate was placed in a carbon dioxide incubator overnight.
(§29) Step 3.2 Preparation of the compounds to be tested
Each compound to be tested was dissolved in DMSO at 10 mM as the stock solution, which was left in a nitrogen-gas tank for storage.
After dilution of 10 μL stock solution (10 mM) into 2.5 mM as a starting working solution, 10 concentrations of the working solutions from 5 μM to 0.25 nM were obtained in duplicate by further dilution in 3-fold series with ECHO.
Step 3.3 Mixing the compound with the test cells
To each well of a new 96-well plate were added 49 μl medium and 1 μl of the compounds to be tested at individual working concentrations (10 concentrations in total). After oscillation,
5 μl of mixture in each well of the 96-well plate was transferred into corresponding wells in the 384-well plate in the step 3.1. The 384-well plate was incubated in the carbon dioxide incubator for 3 days.
To each well of the 384-well plate was added […] reagent Promega CellTiter-Glo. and incubated at room temperature for 10 minutes to stabilize the luminescence signal. The results were read with the PerkinElmer Envision Multi-mode Plate Reader.

[4] = test system: Ba/F3 EML4-ALK cells; assay: Suppression of Ba/F3 EML4-ALK cell proliferation (CellTiter-Glo); type: cell-based; settings: 3 days incubation
Description: Cell media: RPMI-1640 medium, fetal calf serum (FCS), antibiotics (Penicillin-Streptomycin), IL-3, puromycin
Cell line: Ba/F3 EML4-ALK
Assay reagent: Cell Viability Assay Kit Celliter-Glo
as §27
as §26, with “in medium” for “in culture”, “a cell viability assay” for “a living-cell testing”, “was assayed by” for “was tested with”
as §28
Ba/F3 EML4-ALK cells were planted into a 384-well plate, with almost 300 cells per well. The plate was placed in a carbon dioxide incubator overnight.
as §29
10 concentrations of the working solutions were obtained in duplicate by dilution in 3-fold series with BRAVO.
Step 3.3 Mixing the compound to be tested with the test cells
The compounds to be tested at individual working concentrations were transferred into corresponding wells in the 384-well plate in the step 3.1, with 5 μM as the initial working concentration, and then the 384-well plate was incubated in the carbon dioxide incubator for 3 days.
To each well of the 384-well plate was added the reagent Promega CellTiter-Glo, and incubated at room temperature for 10 minutes to stabilize the luminescence signal. The results were read by the PerkinElmer Envision Multi-mode Plate Reader.

Sequence of ALK (Q9UM73 19-1620): as the sequence (Q9UM73 19-1620 L1196M) above, with M1178L counted along it

SMILES	IC50 [1]	IC50 [2]	IC50 ([3]; Homo sapiens, KARPAS-299, 72 h)	IC50 ([4]; Ba/F3 EML4-ALK, 72 h)	IC50 [3]	IC50 [4]
COc1cc(N2CCC(N(C)C)CC2)c(C)cc1Nc1ncc(Cl)c(Nc2cccnc2S(=O)(=O)C(C)C)n1 [Compound I-98, 5-chloro-N^2-(4-(4-(dimethylamino)piperidin-1-yl)-2-methoxy-5-methylphenyl)-N^4-(2-(isopropylsulfonyl)pyridin-3-yl) pyrimidine-2,4-diamine]	< 1 nM	< 1 nM	< 50 nM	20 to 100 nM	–	–
CC(C)S(=O)(=O)c1ncccc1Nc1nc(Nc2ccc(N3CCC(N(C)C)CC3)cc2OC(F)F)ncc1Cl [Compound I-100, 5-chloro-N^2-(2-(difluoromethoxy)-4-(4-(dimethylamino)piperidin-1-yl)phenyl)-N^4-(2-(isopropylsulfonyl)pyridin-3-yl) pyrimidine-2,4-diamine]	1 to 10 nM	1 to 10 nM	< 50 nM	20 to 100 nM	–	–
Cc1cc(Nc2ncc(Cl)c(Nc3ccccc3S(=O)(=O)C(C)C)n2)c(OC(F)F)cc1N1CCC(N(C)C)CC1 [Compound I-102, 5-chloro-N^2-(2-(difluoromethoxy)-4-(4-(dimethylamino)piperidin-1-yl)-5-methylphenyl)-N^4-(2-(isopropylsulfonyl)phenyl) pyrimidine-2,4-diamine]	1 to 10 nM	< 1 nM	50 to 100 nM	< 20 nM	–	–
COc1cc(CN2CCC(N(C)C)CC2)ccc1Nc1ncc(Cl)c(Nc2ccccc2S(=O)(=O)C(C)C)n1 [Compound I-109]	1 to 10 nM	1 to 10 nM	50 to 100 nM	< 20 nM	–	–
COc1cc(CN2CCC(N(C)C)CC2)ccc1Nc1ncc(Cl)c(Nc2ccccc2S(=O)(=O)C(C)C)n1 [Compound I-110]	1 to 10 nM	1 to 10 nM	–	–	< 50 nM	< 20 nM
COc1cc(N2CCC(N(C)C)CC2)ccc1Nc1ncc(OC(F)F)c(Nc2ccccc2S(=O)(=O)C(C)C)n1 [Compound I-111, 5-(difluoromethoxy)-N^2-(4-(4-(dimethylamino)piperidin-1-yl)-2-methoxyphenyl)-N^4-(2-(isopropylsulfonyl)phenyl) pyrimidine-2,4-diamine]	< 1 nM	< 1 nM	< 50 nM	< 20 nM	–	–
COc1cc(N2CCC(N(C)C)CC2)c(C)cc1Nc1ncc(OC(F)F)c(Nc2ccccc2S(=O)(=O)C(C)C)n1 [Compound I-112, 5-(difluoromethoxy)-N^2-(4-(4-(dimethylamino)piperidin-1-yl)-2-methoxy-5-methylphenyl)-N^4-(2-(isopropylsulfonyl)phenyl) pyrimidine-2,4-diamine]	< 1 nM	< 1 nM	< 50 nM	< 20 nM	–	–
CC(C)Oc1cc(N2CCC(N(C)C)CC2)ccc1Nc1ncc(OC(F)F)c(Nc2ccccc2S(=O)(=O)C(C)C)n1 [Compound I-113, 5-(difluoromethoxy)-N^2-(4-(4-(dimethylamino)piperidin-1-yl)-2-isopropoxyphenyl)-N^4-(2-(isopropylsulfonyl)phenyl) pyrimidine-2,4-diamine]	< 1 nM	< 1 nM	< 50 nM	< 20 nM	–	–
